Experimental data taken from article PMC6523531, “Mechanistic Studies on the Absorption-Enhancing Effects of Gemini Surfactant on the Intestinal Absorption of Poorly Absorbed Hydrophilic Drugs in Rats” (Pharmaceutics, 2019).

Columns and labels:
[1] = test system: brush-border membrane vesicles (BBMVs); test: Membrane fluidity of BBMVs by fluorescence polarization (fluorescence anisotropy); conditions: rat BBMVs, 37 °C, SLG-30 0.1-1.0% v/v, vs control, n = 4
Method: To prepare BBMVs, we followed the methods as reported previously with a slight modification. Briefly, an in situ small intestinal loop was prepared in each rat, as mentioned above, and then, PBS (pH 7.4) was administered into the loop. The fat was trimmed off from the small intestine and mesentery. Then, the whole small intestine was soaked in ice-cold PBS (pH 7.4). The small intestine was divided into 10 cm segments. Mucosa was scraped out with a slide glass from each of these segments and used for subsequent studies. BBMVs were prepared by the divalent cation precipitation method using MgCl2 in the presence of ethylenebis (oxyethylenenitrilo) tetraacetic acid (EGTA). Briefly, the collected mucosa was homogenized in a buffer containing mannitol (300 mM), EGTA (5 mM), and Tris (pH 7.4) (12 mM) by using a tissue homogenizer. An aqueous solution of 10 mM magnesium chloride was added to the homogenate. The homogenate was centrifuged at 3000× g for 15 min. The supernatant was then centrifuged at 32,000× g for 30 min. The pellet was resuspended in a buffer containing mannitol (300 mM), EGTA (5 mM), and Tris (pH 7.4) (12 mM) by using a 26-G needle. The protein concentration was determined by the BCA method using bovine serum albumin as a standard, and the final concentration was adjusted to 1 mg/ml in each Eppendorf tube. The samples were frozen by liquid nitrogen and kept at −80 °C for further studies.
The BBMVs (100 μg protein) were incubated with 1 μM DPH, with 0.5 μM tma-DPH or with 5 μM DNS-Cl in HEPES-Tris buffer (25 mM HEPES, 5.4 mM KCl, 1.8 mM CaCl2, 0.8 mM MgSO4, 140 mM NaCl, 5 mM glucose, pH 7.4 adjusted by 1 M Tris) in the dark at 37 °C for 30 min [25, 28]. Then, various concentrations (0.1% v/v, 0.25% v/v, 0.5% v/v, and 1.0% v/v) of SLG-30 were added. Then, the samples were incubated in the dark for 1 min at 37 °C. For the control group, the same procedure was carried out by adding the HEPES-Tris buffer only. The fluorescence intensities and the steady-state polarization of fluorescence expressed as the fluorescence anisotropy, r, of the labeled membrane vesicles were measured at 37 °C. The excitation and emission wavelengths were λex = 360 nm, and λem = 430 nm for DPH and tma-DPH and λex = 380 nm and λem = 480 nm for DNS-Cl. The measurements were carried out by using a Hitachi Spectrofluorometer (F-2000 Spectrofluorometer, Hitachi Seisakusho Corp, Yokohama, Japan) equipped with a polarizer set.
The fluorescence anisotropy (r) was calculated using the following equation: r=IV−IH/IV+2IH where IV and IH respectively represent the […] fluorescence intensities to the polarized excitation plane.

[2] = test system: Caco-2 cell monolayers; test: Transepithelial electrical resistance (TEER) of Caco-2 cell monolayers; type: cell-based, Human
Method: Caco-2 cells (passage 45) were cultured in 175-cm^2 culture flask (Thermo Fisher Scientific™, Waltham, MA, USA). The culture medium consisted of DMEM containing 10% FBS, 0.1 mM MEM–NEAA, 2 mM glutamine, 100 U/mL penicillin, and 100 µg/mL streptomycin [30]. Cells were cultured in a humidified atmosphere of 5% CO2 at 37 °C. The culture medium was changed every two days. When the cultured Caco-2 cells became sub-confluent, they were seeded onto 12-mm Transwell® with 0.4-µm pore polycarbonate membrane inserts (Corning Inc., New York, NY, USA) at a density of 1 × 10^5 cells/insert. The transepithelial transport studies were performed when the transepithelial electrical resistance (TEER) values were more than 500 Ω·cm^2 (i.e., after 21 days). Briefly, after removing the incubation medium by aspiration, the apical and basal sides were washed thrice by Hank’s Balanced Salt (HBSS) solution (pH 7.4). The cells were incubated in HBSS (pH 6.0) for the apical side and HBSS (pH 7.4) for the basal side for 20 min at 37 °C. HBSS supplemented with 1 mg/mL glucose was used in all cell culture experiments. After removing the washing solution by aspiration, 500 µL of 10 µM CF in a HBSS (pH 6.0) solution with or without various concentrations (0.001% v/v, 0.01% v/v, 0.025% v/v, 0.05% v/v, and 0.1% v/v) of SLG-30, 0.1% (w/v) and 1% (w/v) NaGC or 0.05% (w/v) sodium laurate were added to the apical side at zero time, whereas precisely 1500 µL of HBSS (pH 7.4) was added to the basal side at 37 °C. The cells were kept at 37 °C and 5% CO2 and were continuously agitated on a shaker during the transport experiments.
The TEER values were measured by Millicell® (ERS-2 Volt-Ohm Meter, Billerica, MA, USA) at the predetermined times up to 24 h, and the initial values were considered as 100%. The samples from the basal side were withdrawn at predetermined time points up to 24 h. The samples were replaced with an equal volume of HBSS (pH 7.4). CF was determined as previously mentioned. The apparent permeability coefficients Papp (cm/s) for the transported CF was determined by the following equation: Papp=dXR/dt×1/A×1/C0 where Papp is the apparent permeability coefficient in centimeters per second, XR is the amount of CF in moles in the receptor side, dXR/dt is the flux across the monolayer, A is the diffusion area (i.e., in square centimeters), and C0 is the initial concentration of CF in the donor side in moles per milliliter.

[3] = test system: Caco-2 cells; test: Caco-2 cell damage by LDH release; type: cell-based, Human
Method: After the transport studies were over, the solution on the apical side of each well was collected. Cell injury caused by SLG-30 was determined by tracking the LDH release. The cell precipitate and the monolayers left on the filters were solubilized with 1% (v/v) Triton X-100. The solutions from apical sides and the lysates were centrifuged for 7 min at 200× g at a temperature of 4 °C. The activities of LDH in the supernatant were measured. (LDHrelease) stands for the activity of the LDH released into the apical side in the existence of SLG-30. (LDHcell) stands for the activity of the LDH obtained from the cell lysate. LDHreleased% was calculated by the following equation:LDHrelease% = LDHrelease × 100/(LDHrelease + LDHcells)

SMILES: CCCCCCCCCCCC(=O)NC(CCC(=O)NCCCCC(NC(=O)CCC(NC(=O)CCCCCCCCCCC)C(=O)O)C(=O)O)C(=O)O (centres unmarked) [SLG-30, sodium dilauramidoglutamide lysine]
- fluorescence anisotropy of tma-DPH (outer lipid bilayers) ([1]; 0.5 μM tma-DPH): significantly increased
- fluorescence anisotropy of DPH (inner lipid bilayers) ([1]; 1 μM DPH): slightly decreased
- fluorescence anisotropy of DNS-Cl (protein portion) ([1]; 5 μM DNS-Cl, p < 0.01): significantly reduced
- TEER values ([2]; SLG-30 at all concentrations 0.001-0.1% (v/v), first hour): significant decrease
- TEER recovery ([2]; higher concentrations of SLG-30, without removing SLG-30, up to 24 h): did not recover to the baseline
- TEER recovery ([2]; lower concentrations of SLG-30, without removing SLG-30, up to 24 h): started to recover
- activity of LDH released from Caco-2 cells vs control ([3]; SLG-30 0.001-0.1% (v/v), after the transport studies, n = 6): did not increase
- Caco-2 cell injury ([3]; SLG-30 at concentrations used in in vivo studies): the cells were detached and severely injured
